{"source": "paper PMC12030627", "about": "“Radioiodinated Bicyclic RGD Peptide Derivatives for Enhanced Tumor Accumulation” (Pharmaceuticals, 2025)", "key": {"[1]": {"test": "Octanol–water distribution coefficient (log D)", "assay_type": "physicochemical", "conditions": "shake-flask 1-octanol/PBS(–) pH 7.4, 1.0 mL each (1:1), 40 kBq, vortexed 2 min, centrifuged 5000 rpm 5 min, radioactivity by γ-counter, mean of n = 4", "protocol": "For log D determination, [^125I]bcRGD, [^125I]bcRGDpal, [^125I]bcRGDiba, or [^125I]bcRGDdimer (40 kBq) was dissolved in 1.0 mL PBS(–) (pH 7.4) and mixed with 1.0 mL 1-octanol (1:1, v/v). The mixture was vortexed for 2 min and centrifuged at 5000 rpm for 5 min. Radioactivity in 0.5 mL of each phase was measured using a γ-counter, and log D values were calculated based on the radioactivity distribution (n = 4)."}, "[2]": {"test": "Albumin binding, size-exclusion spin column elution after incubation with mouse plasma", "assay_type": "in vitro ADME", "conditions": "37 kBq in 50 μL PBS(–) incubated 37 °C 10 min with 200 μL mouse plasma (male ddY); Sephadex G-50 Fine spin column, 2000 rpm 2 min; γ-counter; eluted/added radioactivity × 100", "protocol": "(§1) To assess albumin binding, mouse plasma was obtained by centrifugation of whole blood from male ddY mice (9 weeks old). [^125I]bcRGD, [^125I]bcRGDpal, [^125I]bcRGDiba, or [^125I]bcRGDdimer (37 kBq) in 50 μL PBS(–) was incubated at 37 °C for 10 min with 200 μL of PBS(–), mouse plasma, or human serum albumin (HSA, 45 mg/mL in PBS(–); Wako Pure Chemical Industries, Osaka, Japan). The mixtures were applied to gel filtration spin columns (Sephadex G-50 Fine; Cytiva, Tokyo, Japan), centrifuged (2000 rpm, 2 min), and radioactivity in the eluted fraction was measured with a γ-counter. The high molecular weight fraction was calculated as the elution ratio = (radioactivity in elution)/(added radioactivity) × 100 (%)."}, "[3]": {"biological_target": "T1, human serum albumin (HSA) (Homo sapiens, UniProt P02768)", "T1 construct": "purchased Wako Pure Chemical Industries", "T1 sequence (P02768 25-609)": "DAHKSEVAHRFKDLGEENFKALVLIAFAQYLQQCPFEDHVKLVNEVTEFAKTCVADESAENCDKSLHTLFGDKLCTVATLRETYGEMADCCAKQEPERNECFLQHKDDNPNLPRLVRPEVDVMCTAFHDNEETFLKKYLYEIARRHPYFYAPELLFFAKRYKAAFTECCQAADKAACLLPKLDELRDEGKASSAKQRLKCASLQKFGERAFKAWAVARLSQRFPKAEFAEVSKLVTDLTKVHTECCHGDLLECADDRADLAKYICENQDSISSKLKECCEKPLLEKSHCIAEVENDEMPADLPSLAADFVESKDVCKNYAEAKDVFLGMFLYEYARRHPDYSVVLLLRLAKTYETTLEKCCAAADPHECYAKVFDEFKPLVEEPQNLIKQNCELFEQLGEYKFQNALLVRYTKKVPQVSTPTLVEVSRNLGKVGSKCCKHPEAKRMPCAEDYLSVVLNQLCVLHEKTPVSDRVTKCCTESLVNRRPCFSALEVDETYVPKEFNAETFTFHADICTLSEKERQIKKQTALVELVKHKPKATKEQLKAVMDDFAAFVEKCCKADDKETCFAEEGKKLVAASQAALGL", "test": "Albumin binding, size-exclusion spin column elution after incubation with HSA", "assay_type": "in vitro ADME", "conditions": "37 kBq in 50 μL PBS(–) incubated 37 °C 10 min with 200 μL HSA 45 mg/mL in PBS(–); Sephadex G-50 Fine spin column, 2000 rpm 2 min; γ-counter; eluted/added radioactivity × 100", "protocol": "as §1"}, "His-tagged integrin αVβ5": {"biological_target": "T2, His-tagged integrin αVβ5 (Homo sapiens, UniProt P06756+P18084)", "T2 construct": "purchased R&D Systems 2528-AV", "T2 sequence (P06756 31-992 limits assumed)": "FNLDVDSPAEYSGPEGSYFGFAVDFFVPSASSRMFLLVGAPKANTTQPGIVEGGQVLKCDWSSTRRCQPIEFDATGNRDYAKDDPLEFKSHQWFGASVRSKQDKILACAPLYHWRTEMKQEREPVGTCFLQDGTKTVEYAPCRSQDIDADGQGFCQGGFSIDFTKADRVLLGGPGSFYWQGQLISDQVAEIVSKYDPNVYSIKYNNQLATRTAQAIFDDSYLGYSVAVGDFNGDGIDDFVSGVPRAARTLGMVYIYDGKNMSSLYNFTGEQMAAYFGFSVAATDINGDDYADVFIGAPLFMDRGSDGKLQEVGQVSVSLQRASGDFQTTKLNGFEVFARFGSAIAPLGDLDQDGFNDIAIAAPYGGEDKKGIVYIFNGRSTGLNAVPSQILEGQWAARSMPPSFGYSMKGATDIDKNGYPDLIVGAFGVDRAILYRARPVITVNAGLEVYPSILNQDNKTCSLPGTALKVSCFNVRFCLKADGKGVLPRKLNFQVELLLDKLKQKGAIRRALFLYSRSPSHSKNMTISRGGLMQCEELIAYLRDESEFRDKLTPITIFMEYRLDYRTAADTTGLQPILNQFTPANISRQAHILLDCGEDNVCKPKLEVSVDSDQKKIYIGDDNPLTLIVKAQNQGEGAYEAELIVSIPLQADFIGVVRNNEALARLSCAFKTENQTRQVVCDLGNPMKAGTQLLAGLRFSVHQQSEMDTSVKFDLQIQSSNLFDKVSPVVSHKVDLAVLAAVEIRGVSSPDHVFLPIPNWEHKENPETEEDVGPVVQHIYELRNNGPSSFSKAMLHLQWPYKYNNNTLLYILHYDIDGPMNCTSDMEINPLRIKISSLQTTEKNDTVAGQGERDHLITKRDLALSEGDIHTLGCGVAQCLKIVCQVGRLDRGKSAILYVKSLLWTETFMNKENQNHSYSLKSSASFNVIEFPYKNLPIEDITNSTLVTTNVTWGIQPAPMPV", "T2 sequence (P18084 24-719 limits assumed)": "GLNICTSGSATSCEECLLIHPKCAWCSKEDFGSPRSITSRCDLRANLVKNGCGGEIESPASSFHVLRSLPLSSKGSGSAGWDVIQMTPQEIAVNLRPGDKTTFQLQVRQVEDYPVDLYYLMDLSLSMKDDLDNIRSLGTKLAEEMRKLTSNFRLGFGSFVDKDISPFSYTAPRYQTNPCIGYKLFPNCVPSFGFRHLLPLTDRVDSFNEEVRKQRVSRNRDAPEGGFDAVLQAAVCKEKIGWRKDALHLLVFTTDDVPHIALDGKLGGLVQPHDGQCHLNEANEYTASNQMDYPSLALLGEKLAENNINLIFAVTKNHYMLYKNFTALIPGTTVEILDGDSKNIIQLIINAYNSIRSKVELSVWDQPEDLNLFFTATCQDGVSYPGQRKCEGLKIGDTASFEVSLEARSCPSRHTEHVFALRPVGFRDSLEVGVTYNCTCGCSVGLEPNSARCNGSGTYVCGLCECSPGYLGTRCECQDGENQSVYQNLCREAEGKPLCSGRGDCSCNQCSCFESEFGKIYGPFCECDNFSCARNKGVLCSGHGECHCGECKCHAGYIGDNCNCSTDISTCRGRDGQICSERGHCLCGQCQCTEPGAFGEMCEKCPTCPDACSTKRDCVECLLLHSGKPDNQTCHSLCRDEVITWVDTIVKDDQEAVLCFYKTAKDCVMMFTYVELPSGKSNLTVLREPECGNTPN", "test": "In vitro selectivity assay, His-tag Dynabeads pulldown, integrin αVβ5", "assay_type": "binding", "conditions": "cyclo-(RGDfK) 25 μM blocking; 2 h incubation at 37 °C", "protocol": "(§2) Binding assays were conducted following our previously reported method, using the Dynabeads™ His-Tag Isolation and Pulldown protocol (Thermo Fisher Scientific, Tokyo, Japan). Briefly, [^125I]bcRGDpal or [^125I]bcRGDiba (10 kBq/sample) was incubated at 37 °C for 2 h in 200 μL of incubation buffer (3.25 mM sodium phosphate, 70 mM NaCl, 0.01% Tween 20, pH 7.4) with 10 pmol of His-tagged integrin αVβ3, αVβ5, or α5β1 proteins (αVβ3: IT3-H52E3, ACRO Biosystems, Newark, DE, USA; αVβ5: 2528-AV, R&D Systems, Minneapolis, MN, USA; α5β1: CT014-H2508H, Sino Biological, Beijing, China). For the inhibition group, cyclo(RGDfK) (25 μM, S7834, Selleck, Houston, TX, USA) was preincubated with the integrin protein for 30 min at 37 °C. Next, A 2× binding buffer (100 mM sodium phosphate, 600 mM NaCl, 0.01% Tween 20, pH 8.0) was mixed with the solution at a 1:1 volume ratio and incubated with 5 μL of magnetic beads at 37 °C for 10 min to enable protein immobilization. Following immobilization, the beads were rinsed three times with the binding buffer, and radioactivity was measured using a NaI well-type scintillation counter (2480 Wizard2; PerkinElmer Japan, Yokohama, Japan). Protein binding was expressed as %dose/nmol protein."}, "His-tagged integrin α5β1": {"biological_target": "T3, His-tagged integrin α5β1 (Homo sapiens, UniProt P05556+P08648)", "T3 construct": "purchased Sino Biological CT014-H2508H", "T3 sequence (P08648 42-995 limits assumed)": "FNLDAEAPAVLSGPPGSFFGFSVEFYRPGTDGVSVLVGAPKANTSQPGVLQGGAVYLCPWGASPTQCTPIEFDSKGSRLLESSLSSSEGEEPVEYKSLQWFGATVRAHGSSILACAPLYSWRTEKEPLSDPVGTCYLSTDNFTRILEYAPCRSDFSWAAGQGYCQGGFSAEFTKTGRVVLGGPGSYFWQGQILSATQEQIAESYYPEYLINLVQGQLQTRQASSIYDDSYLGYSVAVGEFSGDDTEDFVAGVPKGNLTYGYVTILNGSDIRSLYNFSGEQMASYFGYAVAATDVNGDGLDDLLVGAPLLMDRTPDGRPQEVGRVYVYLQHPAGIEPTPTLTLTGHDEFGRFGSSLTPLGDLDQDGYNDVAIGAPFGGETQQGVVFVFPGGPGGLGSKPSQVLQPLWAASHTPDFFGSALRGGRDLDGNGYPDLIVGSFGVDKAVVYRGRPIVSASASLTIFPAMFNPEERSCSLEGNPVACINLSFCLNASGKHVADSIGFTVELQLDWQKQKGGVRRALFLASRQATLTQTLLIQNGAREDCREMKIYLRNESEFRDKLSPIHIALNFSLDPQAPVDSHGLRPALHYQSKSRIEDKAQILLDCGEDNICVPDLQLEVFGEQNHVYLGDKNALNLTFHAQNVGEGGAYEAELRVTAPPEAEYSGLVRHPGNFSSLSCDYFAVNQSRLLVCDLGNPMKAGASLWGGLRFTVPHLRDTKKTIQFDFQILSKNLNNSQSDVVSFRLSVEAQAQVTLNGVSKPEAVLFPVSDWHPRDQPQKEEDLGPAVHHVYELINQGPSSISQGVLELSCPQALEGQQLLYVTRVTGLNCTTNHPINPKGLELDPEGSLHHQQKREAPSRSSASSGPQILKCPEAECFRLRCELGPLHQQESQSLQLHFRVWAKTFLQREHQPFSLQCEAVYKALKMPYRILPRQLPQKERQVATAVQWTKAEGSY", "T3 sequence (P05556 21-728 limits assumed)": "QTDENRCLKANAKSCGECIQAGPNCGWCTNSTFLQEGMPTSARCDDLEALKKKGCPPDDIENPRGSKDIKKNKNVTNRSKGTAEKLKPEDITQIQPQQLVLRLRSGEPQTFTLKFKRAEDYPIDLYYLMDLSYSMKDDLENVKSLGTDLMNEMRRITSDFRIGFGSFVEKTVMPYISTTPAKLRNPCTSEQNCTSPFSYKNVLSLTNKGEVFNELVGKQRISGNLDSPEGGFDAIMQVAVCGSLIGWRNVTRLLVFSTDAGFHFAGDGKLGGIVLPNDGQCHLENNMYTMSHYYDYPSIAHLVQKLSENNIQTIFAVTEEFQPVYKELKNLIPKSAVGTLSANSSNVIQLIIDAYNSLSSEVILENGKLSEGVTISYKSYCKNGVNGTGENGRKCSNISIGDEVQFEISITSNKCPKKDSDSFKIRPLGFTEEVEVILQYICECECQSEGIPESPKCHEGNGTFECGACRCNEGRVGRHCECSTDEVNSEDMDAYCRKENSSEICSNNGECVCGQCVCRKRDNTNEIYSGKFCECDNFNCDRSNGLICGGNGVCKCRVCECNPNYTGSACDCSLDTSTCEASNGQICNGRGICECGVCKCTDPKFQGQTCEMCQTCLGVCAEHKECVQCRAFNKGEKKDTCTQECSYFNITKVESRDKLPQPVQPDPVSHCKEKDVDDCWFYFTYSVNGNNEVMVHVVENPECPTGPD", "test": "In vitro selectivity assay, His-tag Dynabeads pulldown, integrin α5β1", "assay_type": "binding", "conditions": "cyclo-(RGDfK) 25 μM blocking; 2 h incubation at 37 °C", "protocol": "as §2"}, "His-tagged integrin αVβ3": {"biological_target": "T4, His-tagged integrin αVβ3 (Homo sapiens, UniProt P05106+P06756)", "T4 construct": "purchased ACRO Biosystems IT3-H52E3", "T4 sequence (P06756 31-992 limits assumed)": "as the sequence (P06756 31-992 limits assumed) above", "T4 sequence (P05106 27-718 limits assumed)": "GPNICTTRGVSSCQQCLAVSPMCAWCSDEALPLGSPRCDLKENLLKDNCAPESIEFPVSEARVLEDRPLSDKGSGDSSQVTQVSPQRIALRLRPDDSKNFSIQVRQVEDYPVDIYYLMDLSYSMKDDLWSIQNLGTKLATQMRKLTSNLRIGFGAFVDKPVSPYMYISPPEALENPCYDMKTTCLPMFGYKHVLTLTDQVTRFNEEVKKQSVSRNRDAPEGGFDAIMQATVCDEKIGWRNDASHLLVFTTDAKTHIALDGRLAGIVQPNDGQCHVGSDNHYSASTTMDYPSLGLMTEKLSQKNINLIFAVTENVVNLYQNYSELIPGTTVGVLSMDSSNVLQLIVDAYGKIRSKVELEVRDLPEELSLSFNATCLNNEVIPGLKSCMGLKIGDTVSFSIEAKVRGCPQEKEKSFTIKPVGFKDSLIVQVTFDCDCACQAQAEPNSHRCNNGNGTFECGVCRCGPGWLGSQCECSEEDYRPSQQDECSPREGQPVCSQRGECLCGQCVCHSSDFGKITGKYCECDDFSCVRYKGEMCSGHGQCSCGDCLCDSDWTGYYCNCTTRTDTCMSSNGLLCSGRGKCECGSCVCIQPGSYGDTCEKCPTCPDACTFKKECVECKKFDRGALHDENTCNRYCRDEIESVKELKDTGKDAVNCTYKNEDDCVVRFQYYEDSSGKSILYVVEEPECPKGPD", "test": "In vitro selectivity assay, His-tag Dynabeads pulldown, integrin αVβ3", "assay_type": "binding", "conditions": "for Radioactivity accumulation in αVβ3 protein: 10 kBq probe, 10 pmol His-tagged integrin, 37 °C 2 h, pH 7.4 buffer, without cyclo-(RGDfK); for Radioactivity accumulation in αVβ3 protein with cyclo-(RGDfK) blocking versus free: cyclo-(RGDfK) 25 μM preincubated 30 min at 37 °C, 2 h incubation, unpaired t-test p < 0.001", "protocol": "as §2"}}, "note": "Values joined by “and” are separate entries in the source; they are usually repeats but may differ in a detail not shown here. Equal values may be shown once. Starred links: 1 amine or outer side, 2 acyl side, 3 side chain; linkers in the order of their positions; H or OH if unused. Positions of bridges follow the written chain, without caps; N, C: chain ends. Non-standard residues stand in square brackets, D forms with d. Residues, ends and D or L forms follow the SMILES beside them. *: point of attachment. Butanoyl(4-(4-I-phenyl)) = O=C(CCCc1ccc(I)cc1)*; TBMB = c1c(C[*:1])cc(C[*:3])cc1C[*:2]; Palmitoyl = CCCCCCCCCCCCCCCC(=O)*; Benzoyl(3-I) = O=C(c1cccc(I)c1)*; 4Abz = Nc1ccc(C(=O)O)cc1", "data": [{"compound": "N=C(N)NCCC[C@@H]1NC(=O)[C@H]2CSCc3cc(cc(c3)CSC[C@H](C(N)=O)NC(=O)[C@H](CC(=O)O)NC(=O)CNC1=O)CSC[C@H](NC(=O)CNC(=O)[C@H](CO)NC(=O)c1ccc(NC(=O)CNC(=O)[C@H](CO)NC(=O)[C@@H]3CCCN3C(=O)[C@@H]3CCCN3C(=O)[C@@H]3CCCN3C(=O)CCc3cn(CC[C@H](NC(=O)CCNC(=O)c4cccc(I)c4)C(=O)N4CCC[C@H]4C(=O)N4CCC[C@H]4C(=O)N4CCC[C@H]4C(=O)N[C@@H](CO)C(=O)NCC(=O)Nc4ccc(C(=O)N[C@@H](CO)C(=O)NCC(=O)N[C@H]5CSCc6cc7cc(c6)CSC[C@@H](NC(=O)[C@H](CCC(N)=O)NC(=O)[C@@H]6CCCN6C(=O)[C@H](Cc6c[nH]cn6)NC5=O)C(=O)N[C@@H](CCCNC(=N)N)C(=O)NCC(=O)N[C@@H](CC(=O)O)C(=O)N[C@@H](C(N)=O)CSC7)cc4)nn3)cc1)C(=O)N[C@@H](Cc1c[nH]cn1)C(=O)N1CCC[C@H]1C(=O)N[C@@H](CCC(N)=O)C(=O)N2", "note": "[[^125I]bcRGDdimer]", "values": [{"measurement": "logD", "setting": "[1]", "value": -1.98}, {"measurement": "Elution rate from size-exclusion resin (high molecular weight fraction), mouse plasma", "setting": "[2]", "value": 22, "unit": "%"}, {"measurement": "Elution rate from size-exclusion resin (high molecular weight fraction), HSA", "setting": "[3]", "value": 6, "unit": "%"}]}, {"compound": "CCCCCCCCCCCCCCCC(=O)N[C@@H](CCCCNC(=O)c1cccc(I)c1)C(=O)N1CCC[C@H]1C(=O)N1CCC[C@H]1C(=O)N1CCC[C@H]1C(=O)N[C@@H](CO)C(=O)NCC(=O)Nc1ccc(C(=O)N[C@@H](CO)C(=O)NCC(=O)N[C@H]2CSCc3cc4cc(c3)CSC[C@@H](NC(=O)[C@H](CCC(N)=O)NC(=O)[C@@H]3CCCN3C(=O)[C@H](Cc3c[nH]cn3)NC2=O)C(=O)N[C@@H](CCCNC(=N)N)C(=O)NCC(=O)N[C@@H](CC(=O)O)C(=O)N[C@@H](C(N)=O)CSC4)cc1", "note": "[[^125I]bcRGDpal] (Palmitoyl-K(Benzoyl(3-I))PPPSG[4Abz]SGCHPQ[dC]RGD[dC]-NH2; linker 10-14-18 via TBMB)", "values": [{"measurement": "logD", "setting": "[1]", "value": "1.71 and > 1"}, {"measurement": "Radioactivity accumulation in αVβ5 protein, treatment versus inhibitor group", "setting": "His-tagged integrin αVβ5", "value": "No differences"}, {"measurement": "Elution rate from size-exclusion resin (high molecular weight fraction), mouse plasma", "setting": "[2]", "value": "> 80", "unit": "%"}, {"measurement": "Elution rate from size-exclusion resin (high molecular weight fraction), HSA", "setting": "[3]", "value": 80, "unit": "%"}, {"measurement": "Radioactivity accumulation in α5β1 protein, treatment versus inhibitor group", "setting": "His-tagged integrin α5β1", "value": "No differences"}, {"measurement": "Radioactivity accumulation in αVβ3 protein", "setting": "His-tagged integrin αVβ3", "value": "high radioactivity accumulation"}, {"measurement": "Radioactivity accumulation in αVβ3 protein with cyclo-(RGDfK) blocking versus free", "setting": "His-tagged integrin αVβ3", "value": "significantly inhibited"}]}, {"compound": "N=C(N)NCCC[C@@H]1NC(=O)[C@H]2CSCc3cc(cc(c3)CSC[C@H](C(N)=O)NC(=O)[C@H](CC(=O)O)NC(=O)CNC1=O)CSC[C@H](NC(=O)CNC(=O)[C@H](CO)NC(=O)c1ccc(NC(=O)CNC(=O)[C@H](CO)NC(=O)[C@@H]3CCCN3C(=O)[C@@H]3CCCN3C(=O)[C@@H]3CCCN3C(=O)[C@H](CCCCNC(=O)c3cccc(I)c3)NC(=O)CCCc3ccc(I)cc3)cc1)C(=O)N[C@@H](Cc1c[nH]cn1)C(=O)N1CCC[C@H]1C(=O)N[C@@H](CCC(N)=O)C(=O)N2", "note": "[[^125I]bcRGDiba] ({Butanoyl(4-(4-I-phenyl))}-K(Benzoyl(3-I))PPPSG[4Abz]SGCHPQ[dC]RGD[dC]-NH2; linker 10-14-18 via TBMB)", "values": [{"measurement": "logD", "setting": "[1]", "value": -0.97}, {"measurement": "Radioactivity accumulation in αVβ5 protein, treatment versus inhibitor group", "setting": "His-tagged integrin αVβ5", "value": "No differences"}, {"measurement": "Elution rate from size-exclusion resin (high molecular weight fraction), mouse plasma", "setting": "[2]", "value": "> 80", "unit": "%"}, {"measurement": "Elution rate from size-exclusion resin (high molecular weight fraction), HSA", "setting": "[3]", "value": 60, "unit": "%"}, {"measurement": "Radioactivity accumulation in α5β1 protein, treatment versus inhibitor group", "setting": "His-tagged integrin α5β1", "value": "No differences"}, {"measurement": "Radioactivity accumulation in αVβ3 protein", "setting": "His-tagged integrin αVβ3", "value": "high radioactivity accumulation"}, {"measurement": "Radioactivity accumulation in αVβ3 protein with cyclo-(RGDfK) blocking versus free", "setting": "His-tagged integrin αVβ3", "value": "significantly inhibited"}]}]}
